In patent US5306721A (priority 1990, dated 1994):
Like-named read-outs stand apart in the source and are kept apart here.

How the values were obtained:
[1] = test system: SE-specific IgM and IgG plaque forming cells (PFC); experiment: Plaque test (HPT) for SE-specific IgM and IgG plaque forming cells, immunostimulatory action; assay type: in vivo, mouse (inbred CBA strain); conditions: 2.0 mg/kg daily over 5 days; control 100%; p<0.001
Method: The testing of immunostimulatory effects was also conducted on the mouse (inbred CBA strain) by detection through the plaque test for detecting SE (sheep erythrocyte) -specific immunoglobulin M (IgM) and immunoglobulin G (IgG) PFC (plaque forming cells), and by the rosette test.
2.1 Plaque Test for the Detection of SE-Specific IgM and IgG Plaque Forming Cells (PFC)
To check the immunostimulatory effects, the humoral immune response effect of compounds of Formula I was also investigated in mice of the inbred CBA strain and determined by means of the haemolysis plaque test (HPT). This technique permits the PFC, which produce IgM and IgG antibodies, to be determined quantitatively and separately. The immunization with sheep erythrocytes (SE) was carried out on day 0, the substance was administered orally in a daily dose of 1×10^-5 moles/kg of body weight; on days -1 to +3 relative to the determination of the IgM PFC, or on days +1 to +5 relative to the determination of the IgG PFC.
It becomes clear that a daily treatment extending over 5 days with the compound of Example 1, produces a highly significant increase in the SE-specific IgM and IgG PFC in the CBA mouse.

[2] = test system: SE-specific IgM and IgG plaque forming cells (PFC); experiment: Immunorestorative efficacy: plaque test in cyclophosphamide (CY) damaged animals; assay type: in vivo, mouse (CBA inbred); conditions: for IgM PFC/10^6, CY + compound / IgG PFC/10^6 spleen cells, CY + compound: CY 150 mg/kg, oral 2 mg/kg
Method: The detection of immunorestorative effects after injury to the immune system was carried out also by the plaque test for detecting SE-specific IgM, and IgG PFC, and by the rosette test.
The determination of the immunorestorative activity of compounds of Formula I was conducted by first damaging the immune system of the experimental animals (CBA inbred mice) by chemotherapy with cyclophosphamide, carrageenan, iloprost, or by radiation. The test was carried the plaque test for detecting SE-specific IgM and IgG PFC, and the rosette test.
The examination of the immunorestorative effects of compounds of Example 1 was carried out by damaging the immune system of the experimental animals by cyclophosphamide (CY), and subsequent testing by sheep erythrocycle SE-specific plaque forming cells PFC.
The immune system of the animals was damaged by the injection of 150 mg/kg of body weight on day -1 before the immunization for both the test and the control groups. Immunization was carried out by the intraperitoneal injection of 4×10^8 SE in 0.2 ml of phosphate buffered saline (PBS) solution.
Each of the experimental animals of the test group received by oral administration 2 mg of the compound of Example 1 per kg of body weight on the days -2, -1, 0, +1 and +2. The SE-specific IgM and IgG PFC was detected by the plaque test.

Vaccinia Lister [3] = experiment: microbe, parasite or virus in culture; assay type: cell-based, vaccinia virus
Influenza A/WSN [4] = experiment: Grading replication test on chicken embryo cells, influenza; assay type: cell-based; conditions: Influenza A virus
Herpes simplex type 1 = experiment: microbe, parasite or virus in culture; assay type: cell-based, herpes simplex virus
[5] = test system: Vesicular Stomatitis Indiana; experiment: microbe, parasite or virus in culture; assay type: cell-based, vesicular stomatitis virus
coxsackie A 9 virus = experiment: Antiviral activity against coxsackie A 9 virus; assay type: cell-based
adenovirus type 4 = experiment: Antiviral activity against adenovirus type 4; assay type: cell-based
Vaccinia Lister [6] = experiment: microbe, parasite or virus in culture; assay type: cell-based; conditions: Orthopoxvirus vaccinia
[7] = test system: Herpes simplex type 1 Kupka; experiment: Grading replication test on RH cell line, herpes simplex type 1 Kupka; assay type: cell-based, herpes simplex virus; conditions: RH cells
Vaccinia Lister [8] = experiment: microbe, parasite or virus in culture; assay type: cell-based; conditions: Orthopoxvirus vaccinia, in Gallus gallus, read-out: Plaque reduction in % of the virus control
Influenza A/WSN [9] = experiment: Plaque reduction test, influenza; assay type: cell-based; conditions: Influenza A virus, primary chicken embryo cells, read-out: Plaque reduction in % of the virus control
[10] = test system: Vesicular Stomatitis Indiana; experiment: microbe, parasite or virus in culture; assay type: cell-based; conditions: in Gallus gallus, read-out: Plaque reduction in % of the virus control
[11] = Orthopoxvirus vaccinia, in Gallus gallus, read-out: Inhibition of virus yield
[12] = Orthopoxvirus vaccinia, in Gallus gallus, read-out: Lowering the virus yield
[13] = Vesicular stomatitis virus, in Gallus gallus, read-out: Lowering the virus yield
[14] = read-out: Inhibition of virus yield
[15] = read-out: Lowering the virus yield

## O=c1[nH]c2ccccc2c(=O)n1CCS [Example 1, 3-(2-mercapto-ethyl)-quinazoline-2,4(1H,3H)-dione]
[1]
  number of IgG PFC relative to control: 497%
  number of IgM PFC relative to control: 352%
[2]; 6th and 7th days, p<0.05 and p<0.01
  number of IgG PFC in CY-suppressed animals: significantly increases the number of IgG PFC
[2]; CY-damaged animals, significant on the 5th day, p<0.05
  recovery of the immunological reactivity (IgM PFC): measurable recovery of the immunological reactivity
[2]; day of testing +3, CY only control 37.5 ± 27.1
  IgM PFC/10^6, CY + compound: 31.7 ± 26.6 PFC/10^6
[2]; day of testing +4, CY only control 49.7 ± 32.9
  IgM PFC/10^6, CY + compound: 59.8 ± 26.6 PFC/10^6
[2]; day of testing +5, CY only control 56.8 ± 27.6, p<0.05
  IgM PFC/10^6, CY + compound: 125.2 ± 32.7 PFC/10^6
[2]; day of testing +6, CY only control 26.7 ± 12.1, p<0.05
  IgG PFC/10^6 spleen cells, CY + compound: 88.3 ± 24.8 PFC/10^6 spleen cells
[2]; day of testing +6, CY only control 74.7 ± 73.4
  IgM PFC/10^6, CY + compound: 47.8 ± 32.7 PFC/10^6
[2]; day of testing +7, CY only control 46.7 ± 16.3, p<0.01
  IgG PFC/10^6 spleen cells, CY + compound: 128.3 ± 28.6 PFC/10^6 spleen cells
[2]; day of testing +8, CY only control 63.3 ± 24.2
  IgG PFC/10^6 spleen cells, CY + compound: 58.3 ± 43.6 PFC/10^6 spleen cells
Vaccinia Lister [3]; [11]
  inhibition at 31.25 µM: 99%
  inhibition at 62.5 µM: 99.7%
  inhibition at 125 µM: 100%
  inhibition at 250 µM: > 100%
Vaccinia Lister [3]; [12]
  log reduction at 31.25 µM: 1
  log reduction at 62.5 µM: 2.5
  log reduction at 125 µM: 4
  log reduction at 250 µM: 5.67
Vaccinia Lister [3]; ratio of maximum tolerated dose to minimum effective dose, vaccinia virus
  therapeutic index: 8
Influenza A/WSN [4]; 31.25 μmoles/l, read-out: Inhibition of virus yield
  inhibition at 31.25 µM: 99.5%
Influenza A/WSN [4]; 31.25 μmoles/l, read-out: Lowering the virus yield
  log reduction at 31.25 µM: 2.5
Influenza A/WSN [4]; 62.5 μmoles/l, read-out: Inhibition of virus yield
  inhibition at 62.5 µM: > 100%
Influenza A/WSN [4]; 62.5 μmoles/l, read-out: Lowering the virus yield
  log reduction at 62.5 µM: 4.25
Influenza A/WSN [4]; 125 μmoles/l, read-out: Inhibition of virus yield
  inhibition at 125 µM: > 100%
Influenza A/WSN [4]; 125 μmoles/l, read-out: Lowering the virus yield
  log reduction at 125 µM: 4.67
Influenza A/WSN [4]; 250 μmoles/l, read-out: Inhibition of virus yield
  inhibition at 250 µM: > 100%
Influenza A/WSN [4]; 250 μmoles/l, read-out: Lowering the virus yield
  log reduction at 250 µM: 6.23
Herpes simplex type 1
  Inhibition of virus yield: n.s.
Herpes simplex type 1; Human alphaherpesvirus 1, in Gallus gallus, read-out: Lowering the virus yield
  log reduction at 125 µM: 0.33
Herpes simplex type 1; Human alphaherpesvirus 1, 250 μmoles/l, chicken embryo cells, read-out: Inhibition of virus yield
  inhibition at 250 µM: 99%
Herpes simplex type 1; Human alphaherpesvirus 1, 250 μmoles/l, chicken embryo cells, read-out: Lowering the virus yield
  log reduction at 250 µM: 1
[5]; 125 μmoles/l, chicken embryo cells, n.s. = not significant
  Inhibition of virus yield: n.s.
[5]; Vesicular stomatitis virus, in Gallus gallus, read-out: Inhibition of virus yield
  inhibition at 250 µM: 99.9%
[5]; [13]
  log reduction at 125 µM: 0.5
  log reduction at 250 µM: 3
Coxsackie A 9 virus
  antiviral activity: did not have antiviral activity
Adenovirus type 4
  antiviral activity: did not have antiviral activity
Vaccinia Lister [6]; [14]
  inhibition at 31.25 µM: > 100%
  inhibition at 62.5 µM: 100%
  inhibition at 125 µM: > 100%
  inhibition at 250 µM: > 100%
Vaccinia Lister [6]; [15]
  log reduction at 31.25 µM: 3.5
  log reduction at 62.5 µM: 4
  log reduction at 125 µM: > 4
  log reduction at 250 µM: > 4
[7]; 62.5 μmoles/l, n.s. = not significant
  Inhibition of virus yield: n.s.
[7]; Human alphaherpesvirus 1, 62.5 μmoles/l, read-out: Lowering the virus yield
  log reduction at 62.5 µM: 0.75
[7]; Human alphaherpesvirus 1, 125 μmoles/l, read-out: Inhibition of virus yield
  inhibition at 125 µM: > 100%
[7]; Human alphaherpesvirus 1, 125 μmoles/l, read-out: Lowering the virus yield
  log reduction at 125 µM: 5.5
[7]; Human alphaherpesvirus 1, 250 μmoles/l, read-out: Inhibition of virus yield
  inhibition at 250 µM: > 100%
[7]; Human alphaherpesvirus 1, 250 μmoles/l, read-out: Lowering the virus yield
  log reduction at 250 µM: 6
Vaccinia Lister [8]
  inhibition at 31.25 µM: 87%
  inhibition at 62.5 µM: 92%
  inhibition at 125 µM: 96%
  inhibition at 250 µM: 100%
Influenza A/WSN [9]; 31.25 μmoles/l
  inhibition at 31.25 µM: 85%
Influenza A/WSN [9]; 62.5 μmoles/l
  inhibition at 62.5 µM: 92%
Influenza A/WSN [9]; 125 μmoles/l
  inhibition at 125 µM: 98%
Influenza A/WSN [9]; 250 μmoles/l
  inhibition at 250 µM: 100%
[10]
  inhibition at 62.5 µM: 0%
  inhibition at 125 µM: 15%
  inhibition at 250 µM: 45%
